The values below come from patent publication US20070213359A1 (ACADIA Pharmaceuticals Inc., priority 2005, published 2007).

Like-named read-outs stand apart in the source and are kept apart here.

The target of this experiment is Ghrelin receptor (Homo sapiens, UniProt Q92847). Kind of experiment: Receptor Selection and Amplification Technology (R-SAT) assay. Format: cell-based. Details: expressed in transfected cells; host or cells: NIH3T3. The note with it: for IC50: '—' not defined (nd used separately), read-out: RSAT pIC50 (converted); for Emax: read-out: RSAT Eff(%).
Setting [1] is: negative logarithm of ligand concentration causing 50% inhibition of constitutive receptor response, transfected NIH3T3 cells.
Setting [2] is: percent inhibition at saturating ligand, normalized to reference ligand Substance P analog = 100%.

Ghrelin receptor, sequence (Q92847 whole entry): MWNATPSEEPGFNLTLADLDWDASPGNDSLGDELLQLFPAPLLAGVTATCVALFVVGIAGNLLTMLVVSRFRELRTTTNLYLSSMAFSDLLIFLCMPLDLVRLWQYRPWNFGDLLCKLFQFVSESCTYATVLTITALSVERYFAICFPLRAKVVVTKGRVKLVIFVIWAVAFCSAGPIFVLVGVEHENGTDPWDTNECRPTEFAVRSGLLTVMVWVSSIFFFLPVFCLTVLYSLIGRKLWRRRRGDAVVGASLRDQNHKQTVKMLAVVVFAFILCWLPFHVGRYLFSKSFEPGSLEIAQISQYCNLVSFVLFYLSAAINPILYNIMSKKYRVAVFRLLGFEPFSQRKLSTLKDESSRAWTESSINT

Regarding `CC(=O)c1cn(CCCN2CCC(Oc3cccc(Cl)c3)CC2)c2c(Br)cccc12`, the IC50 under setting [1] is 1 nM. In addition, the Emax under setting [2] worked out at 92%.
For the molecule `COc1cccc2c(C(=O)C3CC3)cn(CCCN3C4CCC3CC(CCc3ccccc3)C4)c12` (stereo not shown), the Emax was 109%. For the same molecule, the IC50 ([…]) is 2.51 nM.
As to `CC(=O)c1cn(CCCN2CCCN(Cc3ccc(F)cc3)CC2)c2c(C)cccc12`, the Emax stood at 95%. Where the note is “[…]”, the IC50 is 2.51 nM.
The like results for `COc1cccc2c(C(=O)NCc3cccc(Cl)c3)cn(CCCN3CCCN(Cc4ccc(F)cc4)CC3)c12` were, in that order, 113% and 3.16 nM.
`COc1cccc2c(C(=O)Cc3ccccc3)cn(CCCN3C4CCC3CC(Oc3ccccc3Cl)C4)c12` (stereo not shown): the Emax amounted to 129%. Where the note is “[…]”, the IC50 was 3.98 nM.
For the molecule `COc1cccc2c(C(=O)C3CC3)cn(CCCN3CCC4(CC3)CC(=O)c3ccccc3O4)c12`, the Emax worked out at 106%. Besides, the IC50 ([…]) is 3.98 nM.
Regarding `CC(=O)c1cn(CCCN2CCCN(Cc3ccc(F)cc3)CC2)c2ncccc12`, the IC50 under setting [1] is 5.01 nM. Also, the Emax under setting [2] worked out at 136%.
On to `CC(=O)c1cn(CCCN2CCCN(Cc3ccc(F)cc3)CC2)c2c(Br)cccc12`, for which the IC50 under setting [1] was 5.01 nM. The Emax under setting [2] stood at 95%.
The like results for `CC(=O)c1cn(CCCN2C3CCC2CC(CCc2ccccc2)C3)c2c(C)cccc12` (stereo not shown) were, in that order, 6.31 nM and 105%.
The matching figures for `CC(=O)c1cn(CCCN2CCCN(Cc3ccc(F)cc3)CC2)c2c(Cl)cccc12`: 7.94 nM and 115%.
The like results for `CC(=O)c1cn(CCCN2CCCN(CCc3ccccc3)CC2)c2c(Cl)cccc12` were, in that order, 10 nM and 96%.
As to `CC(=O)c1cn(CCCN2CCC(Oc3cccc(Cl)c3)CC2)c2c(C)cccc12`, under setting [1], the IC50 is 10 nM. In addition, the Emax under setting [2] was determined as 96%.
The like results for `CC(=O)c1cn(CCCN2C3CCC2CC(CCc2ccccc2)C3)c2c(Cl)cccc12` (stereo not shown) were, in that order, 12.6 nM and 109%.
The matching figures for `COc1cccc2c(C#N)cn(CCCN3CCCN(Cc4ccc(F)cc4)CC3)c12`: 15.8 nM and 109%.
In the case of `CC(=O)c1cn(CCCN2CCN(Cc3ccc(Cl)cc3Cl)CC2)c2c(C#N)cccc12`, under setting [1], the IC50 was 15.8 nM. Also, under setting [2], the Emax came out at 92%.
The matching figures for `CC(=O)c1cn(CCCN2C3CCC2CC(Oc2ccc(F)cc2)C3)c2c(Br)cccc12` (stereo not shown): 15.8 nM and 81%.
As for `COc1cccc2c(C(=O)NCc3cccc(C)c3)cn(CCCN3C4CCC3CC(Oc3ccc(F)cc3)C4)c12` (stereo not shown), under setting [1], the IC50 was 15.8 nM. Under setting [2], the “RSAT Eff(%)” value was 112%.
Turning to `CC(=O)c1cn(CCCN2C3CCC2CC(Oc2ccc(F)cc2)C3)c2c(C)cccc12` (stereo not shown), the IC50 under setting [1] was 20 nM. Besides, under setting [2], the Emax was 98%.
The like results for `CCc1cccc2c(C(C)=O)cn(CCCN3CCCC(Cc4ccccc4Cl)C3)c12` (stereo not shown) were, in that order, 20 nM and 87%.
The matching figures for `CC(=O)c1cn(CCCN2CCC(c3nc(-c4ccncc4)no3)CC2)c2c(C)cccc12`: 31.6 nM and 137%.
Consider `CC(=O)c1cn(CCCN2C3CCC2CC(CCc2ccc(Cl)cc2)C3)c2c(Cl)cccc12` (stereo not shown), for which, under setting [1], the IC50 is 31.6 nM. Also, under setting [2], the Emax came out at 122%.
Take `CCc1cccc2c(C(C)=O)cn(CCCN3CCCN(CCc4ccccc4)CC3)c12`: the IC50 under setting [1] is 31.6 nM. In addition, under setting [2], the Emax came to 103%.
Regarding `COc1cccc2c(C(=O)NCc3cccc(C)c3)cn(CCCN3CCC(Oc4cccc(Cl)c4)CC3)c12`, the Emax was 93%. Besides, under setting [1], the IC50 is 31.6 nM.
The matching figures for `COc1cccc2c(C(=O)NCC(C)C)cn(CCCN3CCC(Oc4cccc(Cl)c4)CC3)c12`: 71% and 31.6 nM.
For `CC(=O)c1cn(CCCN2CCN(CCOc3ccccc3)CC2)c2c(C#N)cccc12`, under setting [1], the IC50 was 31.6 nM. The Emax under setting [2] turned out to be 86%.
Regarding `CC(=O)c1cn(CCCN2CCN(c3nc(-c4cccnc4)no3)CC2)c2c(C)cccc12`, the Emax was 110%. In addition, the IC50 ([…]) is 200 nM.
With `CCCCC[C@H]1C[C@H]2CC[C@@H](C1)N2CCCn1cc(C(=O)c2ccccc2)c2cccc(OC)c21`, the Emax was 91%. Further, the IC50 ([…]) is 200 nM.
Regarding `CCCCC[C@H]1C[C@H]2CC[C@@H](C1)N2CCCn1cc(C(=O)C2CC2)c2cccc(OC)c21`, the Emax amounted to 101%. Further, under “[…]”, the IC50 is 200 nM.
The like results for `COc1cccc2c(C(=O)c3ccccc3)cn(CCCN3CCC4(CC3)CC(=O)c3ccccc3O4)c12` were, in that order, 60% and 200 nM.
For `COc1ccc2c(C(C)=O)cn(CCCN3CCC(c4ccccc4OC)CC3)c2c1`, the Emax was 72%. Also, under “[…]”, the IC50 is 251 nM.
As for `COc1cccc2c(C(=O)c3ccccc3)cn(CCCN3C4CCC3CC(CC(=O)c3ccc(Cl)cc3)C4)c12` (stereo not shown), the Emax turned out to be 143%. Moreover, the IC50 ([…]) is 251 nM.
The matching figures for `COc1cccc2c(C(=O)C3CC3)cn(CCCN3CCC(CCOc4ccc(Cl)cc4)CC3)c12`: 89% and 316 nM.
For the molecule `COc1cccc2c(C(=O)NCc3cccc(Cl)c3)cn(CCCN3CCC(Oc4ccc(F)cc4)CC3)c12`, the Emax was found to be 106%. Also, the IC50 ([…]) is 316 nM.
In the case of `CCCCC[C@H]1C[C@H]2CC[C@@H](C1)N2CCCn1cc(C(C)=O)c2cccc(Cl)c21`, the Emax is 72%. Besides, the IC50 ([…]) was 316 nM.
Consider `COc1cccc2c(C(=O)c3ccccc3)cn(CCCNC3Cc4ccccc4C3)c12`, for which the Emax came to 93%. For the same molecule, for the setting “[…]”, the IC50 is 316 nM.
Regarding `COc1cccc2c(C(=O)NCc3cccc(Cl)c3)cn(CCCN3C4CCC3CC(CC(=O)c3ccc(Cl)cc3)C4)c12` (stereo not shown), the Emax is 76%. For the same molecule, under “[…]”, the IC50 is 316 nM.
The like results for `COc1cccc2c(C(=O)Cc3ccccc3)cn(CCCN3CCCC(Oc4ccc(Cl)cc4)C3)c12` (stereo not shown) were, in that order, 86% and 316 nM.
On to `CC(C)CC(=O)c1cn(CCCN2CCN(C(C)c3ccccc3)CC2)c2ccccc12` (stereo not shown), for which the Emax came to 106%. Further, under “[…]”, the IC50 was 398 nM.
Turning to `CC(=O)c1cn(CCCCN2CCC(Oc3ccccc3Cl)CC2)c2ccccc12`, the Emax is 46%. Further, where the note is “[…]”, the IC50 was 398 nM.
The matching figures for `COc1cccc2c(C(=O)C3CC3)cn(CCCN3CCC(C(=O)c4ccccc4)CC3)c12`: 100% and 398 nM.
The matching figures for `COc1cccc2c(C(=O)C3CC3)cn(CCCN3CCC(Oc4ccc(Cl)cc4)CC3)c12`: 90% and 501 nM.
For `CC(=O)c1c(C)n(CCCN2CCCN(CCc3ccccc3)CC2)c2c(Br)cccc12`, the Emax came out at 42%. Where the note is “[…]”, the IC50 was 501 nM.
The matching figures for `CC(=O)c1cn(CCCN2C3CCC2CC(Oc2ccc(Cl)cc2)C3)c2ccccc12` (stereo not shown): 108% and 501 nM.
The matching figures for `COc1cccc2c(C(=O)c3ccccc3)cn(CCCN3CCC(C(=O)c4ccccc4)CC3)c12`: 102% and 501 nM.
The matching figures for `COc1cccc2c(C(=O)C3CC3)cn(CCCN3CCC(c4nc5ccccc5s4)CC3)c12`: 88% and 501 nM.
With `CCCOC1CCN(CCCn2cc(C(C)=O)c3ccccc32)CC1`, the Emax came to 112%. In addition, where the note is “[…]”, the IC50 was 631 nM.
As for `COc1ccccc1C1CCN(CCCn2cc(C(=O)NCc3cccc(Cl)c3)c3cccc(OC)c32)CC1`, the Emax is 127%. Further, under “[…]”, the IC50 was 631 nM.
Take `COc1ccc2[nH]c3c(c2c1)CCN(CCCn1cc(C(C)=O)c2ccc(OC)cc21)C3`: the IC50 ([…]) is 794 nM. Moreover, the Emax under setting [2] worked out at 69%.
The like results for `COc1ccc2[nH]c3c(c2c1)CCN(CCCn1cc(C(C)=O)c2ccccc21)C3` were, in that order, 794 nM and 76%.
For the molecule `CCCCC1CCN(CCCCn2cc(C(C)=O)c3ccccc32)CC1`, the Emax was determined as 113%. Under “[…]”, the IC50 is 794 nM.
The matching figures for `COc1cccc2c(C(C)=O)cn(CCCN3CCC(N4CCOCC4)CC3)c12`: 95% and 1000 nM.
The matching figures for `CCC(=O)c1cn(CCCN2CCC(O)(Cc3ccccc3)CC2)c2ccccc12`: 73% and 1000 nM.
For `CC(=O)c1cn(CCCN2C3CCC2CC(CC(=O)c2ccccc2)C3)c2c(Cl)cccc12` (stereo not shown), the Emax is 85%. The IC50 ([…]) is 1580 nM.
For `COc1cccc2c(C(C)=O)cn(CCCN3CCN(CC(=O)N4CCOCC4)CC3)c12`, the Emax was determined as 37%. Also, the IC50 ([…]) is 1580 nM.
Regarding `COc1cccc2c(C(=O)NCc3cccc(Cl)c3)cn(CCCN3CCCC(Cc4ccccc4Cl)C3)c12` (stereo not shown), the Emax amounted to 47%. Besides, the IC50 ([…]) was 2000 nM.
Turning to `COc1cccc2c(C(=O)C3CC3)cn(CCCN3C4CCC3CC(CC(=O)c3ccccc3)C4)c12` (stereo not shown), the Emax was 86%. Where the note is “[…]”, the IC50 was 2000 nM.
For `COc1cccc2c(C(=O)NCc3cccc(Cl)c3)cn(CCCN3CCC(C(=O)c4ccccc4)CC3)c12`, the Emax is 114%. Where the note is “[…]”, the IC50 is 2510 nM.
With `CC(=O)c1cn(CCCN2CCC(C(=O)c3ccccc3)CC2)c2cc(Br)ccc12`, the Emax was 36%. Also, the IC50 ([…]) is 2510 nM.
The like results for `CCCOC1CCN(CCn2cc(C(C)=O)c3ccccc32)CC1` were, in that order, 40% and 3160 nM.
The like results for `CCOC(=O)C1CCN(CCn2cc(C(C)=O)c3ccccc32)CC1` were, in that order, 72% and 3980 nM.
Consider `COc1ccccc1C1CCN(CCn2cc(C(C)=O)c3ccccc32)CC1`, for which the Emax was 44%. Besides, under “[…]”, the IC50 is 5010 nM.
The like results for `CCOC(=O)C1CCN(CCCn2cc(C(=O)C(F)(F)F)c3ccccc32)CC1` were, in that order, 64% and 5010 nM.
